Reference: patent US20040220164A1, “Triaza compound immunoregulatory agents” (priority 2001, published 2004)
In brackets after ≈: the same amount, converted by molar mass. Read-outs that look alike come from different tables or passages of the source.

Key:
[1] = test system: HHV-7 (KHR strain); assay: Anti-HHV-7 assay in SupT1 cells (antigen expression, flow cytometry, Example 3); format: cell-based
Procedure: For HHV-7, five-fold dilutions of the compounds were added in 500 μl culture medium in 24-well flat bottom plates (Iwaki, Japan), whereupon 2×10^5 SupT1 cells were added in 400 μl culture medium. After 30 min incubation at room temperature, 100 μl of HHV-7 stock was added to each well. HHV-7-infected and mock-infected SupT1 cells were cultured in a final volume of 1 ml medium in the absence of the compounds. On day 4, half of the medium and the cells were replaced and fresh medium without new compound was added. This procedure was repeated every 2 or 3 days. The CPE was checked regularly microscopically. When CPE was observed, the HHV-7 antigen expression was monitored by flow cytometry, as described previously (Zhang, Y. et al. (1999) “Selective activity of various antiviral compounds against HHV-7 infection Antiviral Res. 43, 23-35.)

[2] = Cytotoxicity assay (trypan blue exclusion, propidium iodide); format: cell-based, human; conditions: human, read-out: CC50 (50% cytotoxic concentration)
Procedure: Cytotoxicity Assay. Cellular toxicity of the compounds was measured by trypan blue exclusion and also by Propidium Iodide by flow cytometry after 3 or 4 days of incubation, in parallel with the CD4 antigen expression. The CC50 value of each CADA analog is the concentration (in μg/ml) required to reduce the viability of the cells by 50%.

[3] = test system: HIV-1 strain NL4.3; assay: Anti-HIV-1 assay in MT-4 cells (p24 Ag ELISA, Example 3); format: cell-based
Procedure: Antiviral Assays. For HIV-1, MT-4 cells were infected with the HIV-1 strain NL4.3. Briefly, five-fold dilutions of the compounds (in 100 μl) were added to 96-well flat bottom plates (Iwaki, Japan). Then, to each well, 7.5×10^4 MT-4 cells were added in 50 μl medium, followed by 50 μl of diluted HIV-1 stock (strain NL4.3). Cytopathic effect (CPE) induced by the virus was checked regularly microscopically. When strong CPE was observed (after 3 to 5 days of incubation) in untreated HIV-1 infected cells, the supernatant was collected, stored at −20° C. and analyzed for HIV-1 core antigen by p24 Ag ELISA (NEN™, PerkinElmer Life Sciences, Boston, Mass.). Finally, the IC50 value of the compounds (i.e., the concentration of the compound required for 50% reduction of HIV infection as measured by viral p24 antigen level in the supernatant of infected MT-4 cells) was calculated.

[4] = target: T1, CD4 (Homo sapiens, UniProt P01730); assay: CD4 down-modulation, flow cytometry with FITC-conjugated anti-CD4 (SK3) mAb, MT-4 cells; format: cell-based; design: To study the effect of the CADA derivatives on surface CD4 antigen expression, MT-4 and SupT1 cells were incubated; endogenous in cells; host or cells: MT-4, SupT1, PBMC; conditions: for IC50: MT-4 cells, day 3, read-out: IC50 CD4 (50% inhibition of extracellular CD4 expression) (converted); for CD4 down-modulating activity compared with CADA or parent analog (in words): structure-activity discussion of Table 5 (MT-4 and SupT1 cells); for CD4 down-modulating activity, fold less active than CADA: compared to CADA, MT-4 cells (stated for some compounds)
Procedure: Flow Cytometric Analyses. To study the effect of the CADA derivatives on surface CD4 antigen expression, MT-4 and SupT1 cells were incubated with a serial 5-fold dilution of the compounds (50, 10, 2, 0.4 and 0.08 μg/ml) or medium at 37° C. […] Briefly, after washing with phosphate-buffered saline (PBS) containing 2% fetal calf serum (FCS), cells were incubated with FITC-conjugated anti-CD4 (SK3) mAb for 30 min at 4° C. As a negative control for a specific background staining, cells were stained in parallel with Simultest Control γ1/γ^2a (Becton Dickinson). Then the cells were washed, fixed with 1% formaldehyde and analyzed by flow cytometry in a FACScalibur (Becton Dickinson, San Jose, Calif., USA). Data were acquired and analyzed with CellQuest software (Becton Dickinson). For the calculation of the CD4 receptor expression, the mean fluorescence intensity (MFI) of each sample was expressed as percentage of the MFI of control cells (after subtracting the MFI of the isotype control). Finally, the IC50 value of the compounds (i.e., the concentration of the compound required for 50% inhibition of extracellular CD4 expression) was calculated.

[5] = target: T1, CD4; assay: CD4 down-modulation, flow cytometry with FITC-conjugated anti-CD4 (SK3) mAb, SupT1 cells; format: cell-based; design: To study the effect of the CADA derivatives on surface CD4 antigen expression, MT-4 and SupT1 cells were incubated; endogenous in cells; host or cells: MT-4, SupT1, PBMC; conditions: for IC50: day 4, read-out: IC50 CD4 (50% inhibition of extracellular CD4 expression) (converted)
Procedure: Flow Cytometric Analyses. To study the effect of the CADA derivatives on surface CD4 antigen expression, MT-4 and SupT1 cells were incubated with a serial 5-fold dilution of the compounds (50, 10, 2, 0.4 and 0.08 μg/ml) or medium at 37° C. Cell surface CD4 antigen expression was analyzed at day 3 (MT-4) or day 4 (SupT1). Briefly, after washing with phosphate-buffered saline (PBS) containing 2% fetal calf serum (FCS), cells were incubated with FITC-conjugated anti-CD4 (SK3) mAb for 30 min at 4° C. As a negative control for a specific background staining, cells were stained in parallel with Simultest Control γ1/γ^2a (Becton Dickinson). Then the cells were washed, fixed with 1% formaldehyde and analyzed by flow cytometry in a FACScalibur (Becton Dickinson, San Jose, Calif., USA). Data were acquired and analyzed with CellQuest software (Becton Dickinson). For the calculation of the CD4 receptor expression, the mean fluorescence intensity (MFI) of each sample was expressed as percentage of the MFI of control cells (after subtracting the MFI of the isotype control). Finally, the IC50 value of the compounds (i.e., the concentration of the compound required for 50% inhibition of extracellular CD4 expression) was calculated.

[6] = target: T1, CD4; assay: Cell surface CD4 expression by flow cytometry (anti-CD4 mAb Leu3a-PE); format: cell-based; design: To study the effect of the CADA derivatives on surface CD4 antigen expression, MT-4 and SupT1 cells were incubated; endogenous in cells; host or cells: MT-4, SupT1, PBMC
Procedure: FIGS. 2A-2C. Surface CD4 expression in MT-4 cell line, SupT1 cell line and PBMCs after incubation with CADA hydrochloride (3.2 or 16 μM) for 1 and 4 days. (A) Cell surface CD4 expression of control MT-4 cells and MT-4 cells treated with CADA (3.2 μM) for 1 day or 4 days. (B) Cell surface CD4 expression of control SupT1 cells and SupT1 cells treated with CADA (3.2 μM) for 1 day or 4 days. (C) Cell surface CD4 expression of control PBMCs and PBMCs treated with CADA (16 μM) for 1 day or 4 days. The cells were stained with anti-CD4 mAb (Leu3a-PE). Percentages of fluorescent cells and MFI (mean fluorescence intensity) are indicated in each histogram.
FIG. 4. Comparison of the effects on CD4 modulation by ATA (24 μM), CADA hydrochloride (16 μM) and PMA (8 nM) in SupT1 cells after incubation with the compounds analyzed after 20 minutes, 4 hours, 1 day and 4 days.
Cells were incubated with CADA hydrochloride and the CD4 expression on the cell surface was analyzed. […] In peripheral blood mononuclear cells (PBMCs), the percentage of CD4 expression decreased to 0.2% after incubation with CADA (16 μM) for 4 days (FIG. 2).
Expression of various other surface antigens was also examined in MT-4 cells, SupT1 cells and PBMCs after incubation with CADA (16 μM) or CADA-free medium at 37° C. for 4 days. After washing with phosphate-buffered saline (PBS) containing 2% FCS(fetal calf serum), the cells were incubated with mAb (as indicated in Table 1) for 20 min at 4° C. Then the cells were washed, fixed with 1% formaldehyde and analyzed by flow cytometry. All mAbs were purchased from Becton-Dickinson (Erembodegem, Belgium).
CADA was compared with ATA and PMA with regard to their down-modulating effects. […] At day 4, the CD4 expression in SupT1 cells treated with CADA reduced to 1.2%.

[7] = SUP-T1, SupT1 cells, read-out: IC50 HHV-7 (50% reduction of HHV-7 antigen expression)
[8] = Human immunodeficiency virus 1, MT4, MT-4 cells, read-out: IC50 HIV-1 (NL4.3), p24 Ag ELISA

| IC50 [1, 7] [mg/L] | IC50 [3, 8] [mg/L] | IC50 [4] [µM] | CD4 down-modulating activity compared with CADA or parent analog (in words) [4] | IC50 [5] [µM] | CD4 down-modulating activity, fold less active than CADA [4] [fold] | down-regulation of CD4 expression (in words) [6] | CD4 down-regulation (in words) [5] | Compound | CC50 ([2]; MT-4 cells) [mg/L] | CC50 ([2]; SupT1 cells) [mg/L] | IC50 ([1]; SUP-T1, read-out: IC50 HHV-7 (50% reduction of HHV-7 antigen expression)) [mg/L] | IC50 ([3]; Human immunodeficiency virus 1, MT4, read-out: IC50 HIV-1 (NL4.3), p24 Ag ELISA) [mg/L] |
| --- | --- | --- | --- | --- | --- | --- | --- | --- | --- | --- | --- | --- |
| 1.59 (≈ 2.73 µM) | 2.36 (≈ 4.05 µM) | 4.41 | – | 12.4 | 9 | down-regulate CD4 expression | – | C=C1CN(S(=O)(=O)c2ccc(C)cc2)CCCN(Cc2ccncc2)CCCN(S(=O)(=O)c2ccc(C)cc2)C1 [QJ030] | 21.3 (≈ 36.5 µM) | > 50 | – | – |
| 1.4 (≈ 2.62 µM) | 5.55 (≈ 10.4 µM) | 11.4 | – | > 18.7 | 17 | down-regulate CD4 expression | not active | C=C1CN(S(=O)(=O)c2ccc(C)cc2)CCCN(C(C)C)CCCN(S(=O)(=O)c2ccc(C)cc2)C1 [QJ035] | 22.2 (≈ 41.6 µM) | 23 (≈ 43.1 µM) | – | – |
| 1.19 (≈ 2.17 µM) | 0.95 (≈ 1.73 µM) | 2.12 | somewhat in between | 3.27 | – | down-regulate CD4 expression | – | C=C1CN(S(=O)(=O)c2ccc(C)cc2)CCCN(C(C)CC)CCCN(S(=O)(=O)c2ccc(C)cc2)C1 (stereo not drawn) [QJ036] | 20.9 (≈ 38.2 µM) | > 50 | – | – |
| 0.13 (≈ 0.231 µM) | 0.48 (≈ 0.854 µM) | 0.943 | – | 1.23 | – | down-regulate CD4 expression | – | C=C1CN(S(=O)(=O)c2ccc(C)cc2)CCCN(CC(C)CC)CCCN(S(=O)(=O)c2ccc(C)cc2)C1 (stereo not drawn) [QJ037] | 22.1 (≈ 39.3 µM) | 24 (≈ 42.7 µM) | – | – |
| 0.34 (≈ 0.605 µM) | 0.31 (≈ 0.552 µM) | 0.73 | – | 0.854 | – | down-regulate CD4 expression | – | C=C1CN(S(=O)(=O)c2ccc(C)cc2)CCCN(CCC(C)C)CCCN(S(=O)(=O)c2ccc(C)cc2)C1 [QJ038] | 19.4 (≈ 34.5 µM) | 8.4 (≈ 15 µM) | – | – |

The next lines start with the compound.

| Compound | IC50 [1, 7] [mg/L] | IC50 [3, 8] [mg/L] | IC50 [4] [µM] | CD4 down-modulating activity compared with CADA or parent analog (in words) [4] | IC50 [5] [µM] | CD4 down-modulating activity, fold less active than CADA [4] [fold] | down-regulation of CD4 expression (in words) [6] | CD4 down-regulation (in words) [5] | CC50 ([2]; MT-4 cells) [mg/L] | CC50 ([2]; SupT1 cells) [mg/L] | IC50 ([1]; SUP-T1, read-out: IC50 HHV-7 (50% reduction of HHV-7 antigen expression)) [mg/L] | IC50 ([3]; Human immunodeficiency virus 1, MT4, read-out: IC50 HIV-1 (NL4.3), p24 Ag ELISA) [mg/L] |
| --- | --- | --- | --- | --- | --- | --- | --- | --- | --- | --- | --- | --- |
| C=C1CN(S(C)(=O)=O)CCCN(Cc2ccccc2)CCCN(S(C)(=O)=O)C1 [MFS105] | > 50 | > 50 | > 116 | significant loss | > 116 | – | – | – | > 50 | > 50 | – | – |
| C=C1CN(S(=O)(=O)c2ccc(COCCCC)cc2)CCCN(Cc2ccccc2)CCCN(S(=O)(=O)c2ccc(COCCCC)cc2)C1 [MFS117] | 0.92 (≈ 1.27 µM) | ≥ 10 | > 13.8 | significant loss | > 68.9 | – | – | – | 18.9 (≈ 26 µM) | > 50 | – | – |
| Cc1ccc(S(=O)(=O)N2CCCN(Cc3ccccc3)CCCN(S(=O)(=O)c3ccc(C)cc3)CCC2)cc1 [MFS-SC001] | 0.65 (≈ 1.14 µM) | > 10 | 12.4 | – | 7.18 | 20 | – | – | 23.1 (≈ 40.5 µM) | 32.2 (≈ 56.5 µM) | – | – |
| C=C1CN(S(=O)(=O)c2ccc(C)cc2)CCCN(CC2CC=CCC2)CCCN(S(=O)(=O)c2ccc(C)cc2)C1 (stereo not drawn) [QJ023] | 0.1 (≈ 0.171 µM) | 0.29 (≈ 0.495 µM) | 0.444 | slightly enhanced | 0.615 | – | down-regulate CD4 expression | – | 22.2 (≈ 37.9 µM) | 28.9 (≈ 49.3 µM) | – | – |
| C=C1CN(S(=O)(=O)c2ccc(C)cc2)CCCN(Cc2ccc[nH]2)CCCN(S(=O)(=O)c2ccc(C)cc2)C1 [QJ027] | – | – | 6.78 | – | 10.5 | 10 | down-regulate CD4 expression | – | 20.2 (≈ 35.4 µM) | 21.7 (≈ 38 µM) | 3.1 (≈ 5.43 µM) | 4.4 (≈ 7.71 µM) |
| C=C1CN(S(=O)(=O)c2ccc(C)cc2)CCCN(CCC)CCCN(S(=O)(=O)c2ccc(C)cc2)C1 [QJ029] | 0.91 (≈ 1.7 µM) | 2 (≈ 3.75 µM) | 4.83 | somewhat in between | 5.73 | – | down-regulate CD4 expression | – | 20.7 (≈ 38.8 µM) | 22.2 (≈ 41.6 µM) | – | – |
